Measurements: patent US9844526B2 (priority 2015, dated 2017)
“Also recorded” adds a separate entry of the source. Where two headings read alike, the source gives them in different places.

Legend:
vascular function = settings: cited from earlier work
platelets [1] = settings: 4 mg/kg/day; cited from earlier work
[2] = system: Healthy postmenopausal women; experiment: Microvascular function by peripheral arterial tonometry (Endo-PAT2000), randomized double-blind crossover trial; format: in vivo, human; settings: combined data
eNOS = settings: 1 μM; human umbilical vein endothelial cells; cited from earlier work
[3] = Plasma resveratrol concentrations after capsule intake (HPLC); format: in vivo, human; settings: one hour study, median (interquartile range), baseline 0.00 (0.00, 0.00)
Description: The study included two separate investigations: a one hour study and a two hour study (FIG. 1). […] The two hour study was designed to fully assess and compare the responses to trans-res and ResArgin™.
Participants were randomized by block design to consumed trans-res or ResArgin™ in random order. Randomization was performed by the study coordinator following a predetermined plan formulated via a web-based random number generator. […] The study included two separate investigations: a one hour study and a two hour study (FIG. 6). During each study visit, which took place after an overnight fast, a baseline measurement of PAT and a blood sample were collected, followed by consumption of the assigned treatment. During the one hour study, PAT measurements and blood samples were collected thirty and sixty minutes after the capsules were consumed. During the two hour study, a PAT measurement and blood sample were taken two hours after the capsules were consumed.
Briefly, plasma was treated with acidified methanol [0.5% (v/v) of acetic acid in methanol; precooled to −20° C.] containing an appropriate recovery standard. The mixture was stored at −80 C for 12 hours to allow for cryo-assisted protein precipitation, and then centrifuged for 15 min at 16,500×g. […]

platelets [4] = settings: 10 mg daily for three months; cited from earlier work
platelets [5] = experiment: Platelet function by whole blood/optical lumi-aggregometer after capsule intake; format: in vivo, human
Description: Participants were randomized by block design to consumed trans-res or […] random order. Randomization was performed by the study coordinator following a predetermined plan formulated via a web-based random number generator. […] The study included two separate investigations: a one hour study and a two hour study (FIG. 6). During each study visit, which took place after an overnight fast, a baseline measurement of PAT and a blood sample were collected, followed by consumption of the assigned treatment. During the one hour study, PAT measurements and blood samples were collected thirty and sixty minutes after the capsules were consumed. During the two hour study, a PAT measurement and blood sample were taken two hours after the capsules were consumed. Platelet reactivity during clinical screening was assessed by a PFA-100 (Siemens, Deerfield, Ill.), which measures platelet function by simulating arterial hemostasis under blood flow shear stress. During the intervention, platelet function was assessed by a whole blood/optical lumi-aggregometer (Chrono-log Model 700, Havertown, Pa.). Briefly, platelet aggregation was measured via electrical impedence (or electrical resistance), whereas lumi-aggregometry was used to examine aggregation together with adenosine triphosphate (hereafter, “ATP”) release, which is determined with firefly luciferin-luciferase system. […] One of the following agonists was used to stimulate platelets: collagen ([…]), AA (10 μL) or ADP ([…]). ATP release was measured only when platelets were activated with ADP. The aggregation was measured over a period of six minutes, following the addition of an agonist.

platelets [6] = settings: in vitro, 10-1,000 μM, dose dependent; cited from earlier work
cyclooxygenase = settings: in vitro; cited from earlier work
[7] = 10 mg per day for three months, stable coronary artery disease patients
[8] = platelets stimulated with 1 μL collagen, one hour post consumption of 90 mg
[9] = platelets stimulated with 10 μL arachidonic acid, one hour after intake of 90 mg

Row | Compound | FMD response (vascular function; [7]) | FMD response (vascular function; 75 mg daily for six weeks) | ADP-induced platelet aggregation (platelets [1]) | AI@75 (AI normalized to a heart rate of 75 beats per minute), change ([2]; 90 mg) | RHI ([2]; 1 hour after intake, ResArgin baseline 2.119±0.085) | FRHI, change from baseline ([2]; one and two hours after intake) | FMD response (vascular function; 75 mg, one hour post-consumption) | FMD response (vascular function; single dose of 30, 90 and 270 mg, one hour after consumption) | Expression of eNOS (eNOS) | Plasma resveratrol concentration ([3]; 30 minutes after intake of 90 mg) | Plasma resveratrol concentration ([3]; 60 minutes after intake of 90 mg) | Platelet aggregation (platelets [4]) | Slope, change from baseline (platelets [5]; lumi-aggregometry with 10 μL ADP, one hour post consumption of 90 mg) | Lag time, change from baseline (platelets [5]; [8]) | Slope, change from baseline (platelets [5]; [8]) | Area under the curve (AUC) of aggregation, change from baseline (platelets [5]; [9]) | Maximum aggregation, change from baseline (platelets [5]; [9]) | Platelet function, change from baseline (platelets [5]; stimulation with 5 μL collagen, one hour post consumption of 90 mg) | Platelet aggregation (platelets [6]) | Cyclooxygenase (COX) activity (cyclooxygenase)
1 | Oc1ccc(C=Cc2cc(O)cc(O)c2)cc1 [Resveratrol, 3,5, 4′-trihydroxystilbene] | enhanced | enhanced | inhibited |  |  |  |  |  |  |  |  |  |  |  |  |  |  |  |  | 
2 | Oc1ccc(/C=C/c2cc(O)cc(O)c2)cc1 [trans-res, Trans-resveratrol] | significant improvement | significant increase |  | No significant changes | not observed | No differences were observed; also recorded: no changes | significant increase | increase | up-regulated | 2.04 (0.82, 2.54) | 2.65 (1.69, 3.44) | significantly reduced | significant decrease | significant increase | not | no changes | no changes | no significant changes | significantly reduced | inhibit
